Here are results for two molecules from patent US20140273008A1, “METHODS TO ASSESS ENZYME ACTIVITY USING MASS SPECTROMETRIC IMMUNOASSAY” (Molecular BioProducts, Inc., priority 2013, published 2014).

The target in this assay is T1, DPP4 (Homo sapiens, UniProt P27487).
T1 construct: from tissue; host or cells: human heparinized plasma
The assay is described as follows: DPP4 activity by MSIA: substrate conversion in human heparinized plasma spiked with recombinant DPP4 substrate peptide and inhibitor. The assay is classed as biochemical. The procedure:
MSIA is a method by which sample purification and preparation occurs essentially simultaneously with sample aliquot and delivery. More specifically, a pipette tip, into which a specific volume of a clinical sample, human or animal, is drawn, contains an affinity reagent for selective preparation and immuno-affinity purification of the sample for subsequent direct mass spectrometer analysis; i.e., no intervening purification steps are performed. As shown schematically in FIG. 1, a clinical sample is drawn into a pipette tip containing an exogenous synthetic peptide substrate. The clinical sample and the exogenous peptide substrate are incubated to effect binding of the exogenous peptide substrate to a specific enzyme that is present in the clinical sample. After washes with buffer and water, the eluant is used for subsequent MS analysis. In this elution process, the eluate is dispensed into a microtiter plate for LC/MS application, directly into a LC/MS, or onto a target for MS insertion. Regardless of the MS technique applied, the eluant contained the exogenous peptide substrates, both the parent exogenous peptide substrate and the cleaved degraded product that was produced based on the activity of the enzyme contained in the clinical sample.
An exogenous synthetic peptide that is a substrate for the enzyme to be assessed is introduced into a clinical specimen, e.g., blood, urine, plasma, cerebrospinal fluid, lymphatic fluid, etc., i.e., the clinical sample is spiked or doped with the exogenous synthetic peptide substrate. For example, if the enzyme to be assessed is DPP4, the sample may be spiked with an exogenous peptide substrate for DPP4, e.g., recombinant GLP1, natriuretic peptide, etc. The exogenous synthetic peptide substrate that is added to the clinical sample in vitro is termed the parent substrate. The sample is then analyzed by MS, or is incubated for a set period of time before MS analysis. Incubation may be for any desired time period, and at any desired temperature, e.g., ambient temperature 19° C.-22° C., or at another desirable temperature, e.g., 37° C. Enzyme that is present in the clinical sample proteolytically cleaves the exogenous parent synthetic peptide substrate into a smaller fragment. The exogenous synthetic peptide substrates, both the parent (unreacted) and the cleaved (reacted) degraded product, are the targets that are monitored by subsequent MSIA. The method may be summarized as follows:
In one embodiment, a MS measurement of the exogenous synthetic peptide substrate in the sample (step (b)) is performed at a single time point, e.g., 15 min. In one embodiment, a MS measurement of the exogenous synthetic peptide substrate in the sample (step (b)) is performed over a time course, e.g., from 100% substrate to decreased or essentially depleted substrate. The time course may be performed utilizing sequential aliquot removal from the same clinical sample, or may be performed on multiple samples assayed in parallel. In all embodiments, the clinical samples are analyzed using MSIA, which selectively targets the substrate peptide, both reacted and non-reacted. MS detection allows for differentiation of the two forms, i.e., the reacted (cleaved, degraded) form of the substrate peptide, and unreacted parent form of the substrate peptide. It thus provides a method of analyzing the activity of an enzyme in a biological system.
In embodiments, clinical samples were treated with various inhibitors to determine the modulation, if any, of the endogenous enzyme activity. For example, if DPP4 was the enzyme whose activity was to be assessed, inhibitors were used that were known or speculated to inhibit DPP4 activity. Concentration studies were also performed (data not shown).
The following results were obtained with the leupeptin inhibitor:
The following results were obtained with the AEBSF inhibitor: […]

[1] abbreviates: Human Plasma 1, 5 mM AEBSF, 0 min.
The mark [2] stands for this setting: Human Plasma 1, 5 mM AEBSF, 15 min.
The mark [3] stands for this setting: Human Plasma 1, 5 mM AEBSF, 30 min.
[4] abbreviates: Human Plasma 1, 5 mM AEBSF, 45 min.
Where [5] appears, read: Human Plasma 1, 5 mM AEBSF, 60 min.
[6] abbreviates: Human Plasma 1, 5 mM AEBSF, 75 min.
Setting [7] is: Human Plasma 1, 1 mM leupeptin, 0 min.
[8] abbreviates: Human Plasma 1, 1 mM leupeptin, 15 min.
Where [9] appears, read: Human Plasma 1, 1 mM leupeptin, 30 min.
Where [10] appears, read: Human Plasma 1, 1 mM leupeptin, 45 min.
Setting [11] is: Human Plasma 1, 1 mM leupeptin, 60 min.
[12] abbreviates: Human Plasma 1, 1 mM leupeptin, 75 min.

T1 sequence (P27487 39-766 limits assumed): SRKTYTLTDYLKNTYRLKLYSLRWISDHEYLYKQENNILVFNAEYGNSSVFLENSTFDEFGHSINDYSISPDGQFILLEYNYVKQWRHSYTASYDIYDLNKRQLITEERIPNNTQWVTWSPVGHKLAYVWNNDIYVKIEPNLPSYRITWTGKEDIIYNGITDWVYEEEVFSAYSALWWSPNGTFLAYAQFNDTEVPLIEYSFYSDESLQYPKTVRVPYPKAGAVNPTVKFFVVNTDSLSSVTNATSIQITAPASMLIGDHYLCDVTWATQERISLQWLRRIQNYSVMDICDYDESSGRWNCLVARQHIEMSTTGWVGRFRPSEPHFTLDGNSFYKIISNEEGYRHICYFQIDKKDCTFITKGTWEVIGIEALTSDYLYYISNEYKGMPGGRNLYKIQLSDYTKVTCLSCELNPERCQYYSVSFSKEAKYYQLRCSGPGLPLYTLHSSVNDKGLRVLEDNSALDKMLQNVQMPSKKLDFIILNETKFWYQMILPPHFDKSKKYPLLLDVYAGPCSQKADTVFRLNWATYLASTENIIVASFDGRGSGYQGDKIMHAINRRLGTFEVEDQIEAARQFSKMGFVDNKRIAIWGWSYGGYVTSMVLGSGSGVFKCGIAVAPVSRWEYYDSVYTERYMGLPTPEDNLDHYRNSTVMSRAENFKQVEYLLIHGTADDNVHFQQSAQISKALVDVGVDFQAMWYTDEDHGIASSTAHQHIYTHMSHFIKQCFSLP

With `NCCc1ccc(S(=O)(=O)F)cc1` [AEBSF], the “% Product” value came to 0% under setting [1]; 11.7% under setting [2]; 17.4% under setting [3]; 22.2% under setting [4]; 24.3% under setting [5]; 24.8% under setting [6]. The “% Substrate” value runs as follows: under setting [1], 100%; under setting [2], 88.3%; under setting [3], 82.6%; under setting [4], 77.8%; under setting [5], 75.7%; under setting [6], 75.2%.

Turning to `CC(=O)N[C@@H](CC(C)C)C(=O)N[C@@H](CC(C)C)C(=O)N[C@H](C=O)CCCNC(=N)N` [leupeptin], the “% Product” value under setting [7] turned out to be 0%; the “% Product” value under setting [8] came out at 52.6%; the “% Product” value under setting [9] was 77.8%; the “% Product” value under setting [10] was found to be 85.1%; the “% Product” value under setting [11] is listed as 87.9%; the “% Product” value under setting [12] is given as 90.2%. For the same molecule, the “% Substrate” value was 100% under setting [7]; 47.4% under setting [8]; 22.2% under setting [9]; 14.9% under setting [10]; 12.1% under setting [11]; 9.8% under setting [12].
